Laboratory results reported in PMC8425678, “1-Oxo-3,4-dihydroisoquinoline-4-carboxamides as novel druglike inhibitors of poly(ADP-ribose) polymerase (PARP) with favourable ADME characteristics” (Journal of Enzyme Inhibition and Medicinal Chemistry, 2021).
Where two headings read alike, the source gives them in different places.

Legend:
PARP1 [1] = target: T1, PARP1 (Homo sapiens, UniProt P09874); details: cited from earlier work
T1 construct: purchased BPS Bioscience (San Diego, CA)

PARP2 [2] = target: T2, PARP2 (Homo sapiens, UniProt Q9UGN5); details: cited from earlier work; for selectivity index (SI): PARP2 selectivity
T2 construct: purchased BPS Bioscience (San Diego, CA)

PARP1 [3] = target: T1, PARP1; assay: PARP1 colorimetric activity assay kit (BPS Bioscience); type: biochemical; details: for IC50: dose-response, mean (n = 3) ± SD, r^2 in brackets; for inhibition at 1 µM: read-out: PARP1 % inhibition at 1 µM, 1 µM compound, triplicate (n = 3)
Procedure: (§1) The thirty-six 1-oxo-3,4-dihydroisoquinoline-4-carboxamides 3a-aj and 1-oxoisoquinoline-4-carboxamide 11 were tested for inhibitory activity towards PARP1 and PARP2 using the commercially available colorimetric activity assay kit from BPS Bioscience (San Diego, CA) in full accordance of the supplier’s method description[13]^,[14]. The initial screening was performed against PARP1 at 1 µM concentration of each compound, in triplicate (n = 3) measurements.

PARP2 [4] = target: T2, PARP2; assay: PARP2 colorimetric activity assay kit (BPS Bioscience); type: biochemical; details: for IC50: dose-response, mean (n = 3) ± SD, r^2 in brackets
Procedure: as §1

[5] = Aqueous PBS solubility determination; type: physicochemical; details: sodium phosphate buffer, kinetic from dmso stock, pH 7.4 0.01 M phosphate buffer solution, 37 °C
Procedure: The stock solution of the compound tested in DMSO (10 mM) was diluted with 0.01 M sodium phosphate buffer solution (pH 7.4) to the concentration of 100 µM, 80 µM, 60 µM, 50 µM, 40 µM, 30 µM, 20 µM and 10 µM. The serially diluted solutions were transferred into a 96-well plate (Corning 3635, UV Plate) and the plate was incubated at 37 °C for 2 h using BioSan PST-60HL-4 thermo shaker. The plate was read at the wavelength of 620 nm using spectrophotometric microplate reader Sunrise (Tecan, Australia). The optical density values were plotted against compound concentration and approximated by a linear relationship to determine the aqueous solubility.

[6] = Stability in human liver S9 fraction; type: in vitro ADME; details: human liver S9 0.5 mg/mL, 10 μM compound, 37 °C; intrinsic clearance
Procedure: (§2) The rate of enzymatic degradation of the compound in liver microsomes was determined by incubating a mixture containing 0.5 mg/mL of pooled human liver microsomes (XenoTech, USA, cat. # H2620), 10 μM of compound tested, 2 mM β-nicotinamide adenine dinucleotide (Carbosynth, UK, cat. # NN10871) and 4 mM magnesium chloride in 0.1 M sodium phosphate buffer (pH 7.4) in a solid-state thermostat at 37 °C. The rate of enzymatic degradation of the compound in human liver S9 fraction was determined by incubating a reaction mixture containing 0.5 mg/mL of pooled S9 human liver fractions (XenoTech, USA, cat # H0610), 10 μM of compound tested, 2 mM β-nicotinamide adenine dinucleotide (Carbosynth, UK, cat # NN10871) and 4 mM magnesium chloride in 0.1 M sodium phosphate buffer (pH 7.4) in a solid-state thermostat at 37 °C. The reaction was stopped with acetonitrile (100 μL MeCN per 100 μL of the reaction mixture). After stopping the reaction, the samples were centrifuged for 10 min at 10,000 rpm. The supernatant was analysed by chromatography using an Agilent 1260 chromatograph (Agilent, United States). Chromatographic analysis was performed in a gradient elution mode at a flow rate of 1 ml/min. A graph of the dependence of the logarithm of the area of the peak of the substance on time was built. The dependent coefficient of this straight line corresponded to the elimination constant k, on the basis of which the half-life of the drug (T1/2) and intrinsic clearance (Clint) were calculated.

[7] = Stability in human liver microsomes; type: in vitro ADME; details: HLM 0.5 mg/mL, 10 μM compound, 37 °C; intrinsic clearance
Procedure: as §2

[8] = Plasma stability determination; type: in vitro ADME, human; details: 4 h, 37 °C, 10 μM
Procedure: Determination of stability in human blood plasma was carried out using pooled human blood plasma obtained from ten healthy donors. The candidate stock solution (10 mM in DMSO) was diluted with the pooled blood plasma to a concentration of 10 μM (test solution). The test solution was kept in a solid-state thermostat for 4 h at a temperature of 37 °C. HPLC method using an Agilent 1260 chromatograph (Agilent, USA) was employed to determine the peak area of the compounds in the test samples corresponding to the initial test time (before exposure) and the final test time (after incubation in a solid-state thermostat for 4 h at 37 °C) with preliminary precipitation of protein mass with acetonitrile (300 μL MeCN per 100 μL of the reaction mixture). After stopping the reaction, the samples were centrifuged for 10 min at 10,000 rpm and the supernatant was collected. Chromatographic analysis was performed in a gradient elution mode at a flow rate of 1 ml/min.

[9] = Plasma protein binding determination (RED dialysis); type: in vitro ADME; details: pooled human blood plasma, 37 °C, read-out: plasma protein binding (% bound) (converted)
Procedure: Determination of binding to human blood plasma proteins was carried out using pooled human blood plasma obtained from ten healthy donors. Determination was performed using Thermo Scientific ™ Single-RED dialysis plates. Test solutions of the candidate (10 mM in DMSO) were prepared in blood plasma and in 0.01 M sodium phosphate buffer by dilution in pooled blood plasma to a concentration of 10 μM (test solution 1) and in buffer to a concentration of 10 μM (test solution 2), respectively. The test solutions were transferred to the chambers of the dialysis plate, incubated in an Environmental Shaker – Incubator ES-20/60 (Biosan, Latvia) for 4 h at a temperature of 37 °C at a speed of 130–250 rpm. During the incubation, passive diffusion of the unbound compound occurs, and after 4 h, equilibrium is reached between the chambers with plasma with buffer solution. At the end of the incubation time, samples were taken from the chambers of the plate. HPLC analysis performed using an Agilent 1260 chromatograph (Agilent, USA) allowed determination of the peak area of the compounds in the test samples with preliminary precipitation of proteins with acetonitrile (300 µL of acetonitrile per 100 µL of the reaction mixture). After stopping the reaction, the samples were centrifuged for 10 min at 10,000 rpm and the supernatant was collected.
The concentration of the test compound in the buffer and plasma chambers was calculated using the formula: С=At=4/At=0×10, where At=0 is the value of the peak area of the candidate's test solution on the chromatogram at the initial moment of time;
The % unbound compound was calculated using the formula: %Free=C1/C2×100, where C1 is the concentration value in the buffer chamber;

T2 sequence (Q9UGN5 whole entry): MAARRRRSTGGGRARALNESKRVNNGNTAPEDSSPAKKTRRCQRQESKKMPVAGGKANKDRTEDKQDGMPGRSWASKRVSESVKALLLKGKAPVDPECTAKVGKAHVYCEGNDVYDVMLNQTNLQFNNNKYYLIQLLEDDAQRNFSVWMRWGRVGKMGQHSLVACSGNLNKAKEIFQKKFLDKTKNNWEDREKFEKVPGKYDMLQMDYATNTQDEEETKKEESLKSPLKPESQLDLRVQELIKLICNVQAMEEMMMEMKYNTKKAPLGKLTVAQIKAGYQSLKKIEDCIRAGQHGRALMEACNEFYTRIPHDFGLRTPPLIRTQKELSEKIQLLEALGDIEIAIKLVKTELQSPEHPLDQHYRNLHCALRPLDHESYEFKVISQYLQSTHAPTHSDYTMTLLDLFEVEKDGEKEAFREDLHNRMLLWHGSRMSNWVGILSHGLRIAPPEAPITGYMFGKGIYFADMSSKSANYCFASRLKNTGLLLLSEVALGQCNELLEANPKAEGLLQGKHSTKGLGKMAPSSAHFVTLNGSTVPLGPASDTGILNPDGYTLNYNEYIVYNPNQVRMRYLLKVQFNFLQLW
T1 sequence (P09874 whole entry): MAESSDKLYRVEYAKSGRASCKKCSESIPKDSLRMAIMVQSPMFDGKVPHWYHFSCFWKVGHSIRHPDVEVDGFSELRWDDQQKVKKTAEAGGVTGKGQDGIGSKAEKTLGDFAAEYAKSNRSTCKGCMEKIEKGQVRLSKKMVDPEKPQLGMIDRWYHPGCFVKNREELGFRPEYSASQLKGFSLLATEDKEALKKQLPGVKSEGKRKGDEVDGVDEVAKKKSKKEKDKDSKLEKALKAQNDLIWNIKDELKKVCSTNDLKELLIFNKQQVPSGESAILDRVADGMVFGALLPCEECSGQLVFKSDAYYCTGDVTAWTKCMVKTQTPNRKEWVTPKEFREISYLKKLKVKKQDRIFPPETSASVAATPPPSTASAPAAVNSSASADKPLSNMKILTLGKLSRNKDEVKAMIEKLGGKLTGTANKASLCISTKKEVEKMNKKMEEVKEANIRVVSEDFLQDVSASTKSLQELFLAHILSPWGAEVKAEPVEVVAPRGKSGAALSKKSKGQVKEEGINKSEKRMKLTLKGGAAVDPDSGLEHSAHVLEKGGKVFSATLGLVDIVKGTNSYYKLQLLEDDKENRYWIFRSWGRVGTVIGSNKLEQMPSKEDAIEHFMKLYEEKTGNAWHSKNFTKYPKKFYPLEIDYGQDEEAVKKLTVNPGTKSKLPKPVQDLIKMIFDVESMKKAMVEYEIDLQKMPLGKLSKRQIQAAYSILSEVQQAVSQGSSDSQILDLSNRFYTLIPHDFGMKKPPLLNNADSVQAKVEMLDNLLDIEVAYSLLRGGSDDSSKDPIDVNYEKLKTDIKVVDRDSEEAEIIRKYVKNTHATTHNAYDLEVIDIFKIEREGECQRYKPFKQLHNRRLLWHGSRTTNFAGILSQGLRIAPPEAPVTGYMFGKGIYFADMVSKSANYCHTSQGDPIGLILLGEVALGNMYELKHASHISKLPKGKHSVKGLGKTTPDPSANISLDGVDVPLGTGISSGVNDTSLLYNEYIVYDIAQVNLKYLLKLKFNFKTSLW

Row | Compound | IC50 (PARP1 [1]) [nM] | selectivity index (SI) (PARP2 [2]) | IC50 (PARP2 [2]) [nM] | IC50 (PARP1 [3]) [nM] | fold better potency compared to 3l (PARP1 [3]; magic fluorine effect, 3aa vs 3l) [fold] | inhibition at 1 µM (PARP1 [3]) [%] | SI, selectivity index (PARP2 over PARP1) (PARP2 [4]) | IC50 (PARP2 [4]) [nM] | solubility at 2 h [5] [µM] | Stability in the presence of hepatic S9 fraction [6] [µL/min/mg] | Stability in the presence of human liver microsomes [7] [µL/min/mg] | % compound remaining after incubation with human plasma [8] [%] | fraction unbound at 4 h, 10 µM [9] | melting point [°C] | PARP1 inhibitory potency in words (PARP1 [3]; compared with 3l)
1 | O=C(Oc1cccc2c1CCNC2=O)c1ccccc1 [Compound 1a] | 13000 | 16.3 | 800 |  |  |  |  |  |  |  |  |  |  |  | 
2 | O=C(Oc1cccc2c(=O)[nH]ccc12)c1ccccc1 [Compound 1b] | 9000 | 60.0 | 150 |  |  |  |  |  |  |  |  |  |  |  | 
3 | O=C(Nc1cccc2c(=O)[nH]ccc12)c1ccccc1 [Compound 2] |  |  | 1500 |  |  |  |  |  |  |  |  |  |  |  | 
4 | O=C1NCC(C(=O)N2CCC(N3CCCCC3)CC2)c2ccc(F)cc21 (stereo not shown) [Compound 3aa, 4-([1,4'-Bipiperidine]-1'-carbonyl)-7-fluoro-3,4-dihydroisoquinolin-1(2H)-one] |  |  |  | 63.1 ± 5.3 | ~2.5 | 91.8 ± 0.7 | 2.17 | 29.4 ± 4.5 | > 100 | 0.1 | 3.4 | 100 | 0.29 |  | 
5 | COC1CCN(C2CCN(C(=O)C3CNC(=O)c4cc(F)ccc43)CC2)CC1 (stereo not shown) [Compound 3aj, 7-Fluoro-4–(4-methoxy-[1,4'-bipiperidine]-1'-carbonyl)-3,4-dihydroisoquinolin-1(2H)-one] |  |  |  | 266 ± 25 |  | 90.5 ± 0.1 | 6.05 | 44.1 ± 3.9 |  |  |  |  |  | 186 to 187 | 
6 | O=C1NCC(C(=O)N2CCC(N3CCCCC3)CC2)c2ccccc21 (stereo not shown) [Compound 3l, 4-([1,4'-Bipiperidine]-1'-carbonyl)-3,4-dihydroisoquinolin-1(2H)-one] |  |  |  | 156 ± 5.8 |  | 85.2 ± 2.6 | 2.23 | 70.1 ± 7.6 | > 100 | 0.3 | 2.6 | 92.6 | 0.332 |  | active
7 | O=C(c1cc(Cc2n[nH]c(=O)c3ccccc23)ccc1F)N1CCN(C(=O)C2CC2)CC1 [Olaparib, reference compound] |  |  |  |  |  |  |  |  | > 100 | 1.1 | 15 | 100 | 0.098 |  | 
